One data set deals with mammary tumor. The following applies: cited from earlier work.
In another data set the test system is liver. The following applies: result in words; cited from earlier work.
Data set [1] relates to CYP1A1. The following applies: result in words; cited from earlier work.
A further data set relates to rat uterus. The following applies: immature female rat uterus; result in words; cited from earlier work.
Data set [2] deals with CYP1A1. The following applies: rat, cited from earlier work; for ED50 for induction of hepatic CYP1A1-dependent activity: 6-i-propyl value estimated.
For another data set, the system named is mammary tumors. Kind of data set: DMBA-induced rat mammary tumor model, tumor volume and weight. The data set is classed as in vivo, Sprague-Dawley rat. The following applies: 20 days. Here is the method: Female virgin Sprague-Dawley rats were obtained from Harlan (Houston) and were allowed to acclimate for 10 days, allowed access to food and water ad libitum, and maintained on a 12 h light/dark schedule. Mammary tumors were induced in 50±3 day old-rats by administering a single gavage dose of 20 mg DMBA in 0.5 ml corn oil. […] Tumor sizes were measured with calipers, and volumes were calculated by formula (length×width×depth)/6π and are expressed as percent control. […] All tumors were removed, weighed, and sectioned. One portion was frozen in liquid nitrogen for PCR analysis; one portion was placed in 10% formalin for histopathological analysis; and the majority was immediately homogenized for the preparation of microsomal and cytosolic fractions. Livers were perfused and weighed, and cytosol and microsomes were prepared as previously described.

Data set [3] can be described thus: Body and organ weights in DMBA-treated rats. How it is done: Female virgin Sprague-Dawley rats were obtained from Harlan (Houston) and were allowed to acclimate for 10 days, allowed access to food and water ad libitum, and maintained on a 12 h light/dark schedule. Mammary tumors were induced in 50±3 day old-rats by administering a single gavage dose of 20 mg DMBA in 0.5 ml corn oil. […] Tumor sizes were measured with calipers, and volumes were calculated by formula (length×width×depth)/6π and are expressed as percent control. One week after their last injection, rats were euthanized by asphyxiation. All tumors were removed, weighed, and sectioned. One portion was frozen in liquid nitrogen for PCR analysis; one portion was placed in 10% formalin for histopathological analysis; and the majority was immediately homogenized for the preparation of microsomal and cytosolic fractions. Livers were perfused and weighed, and cytosol and microsomes were prepared as previously described.

For the next data set, the system named is femurs. The data set can be described thus: Bone effects in ovariectomized rats (femur weight and length). The data set is classed as in vivo, Sprague-Dawley rat. The following applies: tamoxifen 0.4, 6-MCDF 0.8 mg/kg/day oral, 20 days. How it is done:
The ovariectomized rat is used as a model for osteoporosis.
Rats were euthanized on day 21. After uteri were excised and processed, both left and right femurs were excised and the length measured with calipers. […] Wet weight was measured after residual connective tissue was stripped away. Dry weight was measured after the bones were dried for 12 ours at 130° C.

In data set [4] the test system is uterus. Kind of data set: Uterine wet weight in ovariectomized rats (Example 4). The data set is classed as in vivo, Sprague-Dawley rat. The following applies: 0.4 mg/kg/day each oral, 20 days.
From the text: (§2) Methods: Rats were ovariectomized at 97 days of age, and treatments began at 117 days of age. […] Rats were euthanized on day 21.
Data set [5] concerns uterine peroxidase. The data set can be described thus: Uterine peroxidase assay in ovariectomized rats (Example 4). The data set is classed as in vivo, Sprague-Dawley rat. The following applies: 0.4 mg/kg/day each oral, 20 days. From the text:
(§1) Rats were euthanized on day 21.

For a further data set, the system named is uterine cytosolic PR. The data set can be described thus: Uterine cytosolic PR levels in ovariectomized rats (Example 4). The data set is classed as in vivo, Sprague-Dawley rat. The following applies: 0.4 mg/kg/day each oral, 20 days.
From the text: as §1

In data set [6] the test system is uterus. Kind of data set: Uterine wet weight in ovariectomized rats (Example 6, Table 6). The data set is classed as in vivo, Sprague-Dawley rat. The following applies: tamoxifen 0.4, 6-MCDF 0.8 mg/kg/day oral, 20 days.
From the text: as §1

The subject of data set [7] is uterine peroxidase. The data set can be described thus: Uterine peroxidase activity in ovariectomized rats (Example 6, Table 6). It counts as in vivo, Sprague-Dawley rat. The following applies: tamoxifen 0.4, 6-MCDF 0.8 mg/kg/day oral, 20 days.
From the text: as §1

Data set [8] relates to uterine progesterone receptor. Kind of data set: Uterine progesterone receptor in ovariectomized rats (Example 6, Table 6). The following applies: tamoxifen 0.4, 6-MCDF 0.8 mg/kg/day oral, 20 days. It counts as in vivo, Sprague-Dawley rat.
From the text: as §1

The test system of the next data set is bone tissue. The following applies: cited from earlier work.
The subject of the next data set is endometrial tumor. The following applies: cited from earlier work.
Data set [9] concerns uterus. The following applies: cited from earlier work.
Data set [10] is described as follows: Body and organ weights (Examples 4 and 5).
Procedure: as §2
For the control vehicle and the MCDF vehicle ethanol was added (5% v/v) and then evaporated away.
Data set [11] can be described thus: Body and organ weights (Example 6, Table 7).
Procedure: For Table 7 and FIGS. 3 and 3B, exact aged virgin female Sprague-Dawley rats were dosed on day 55 in the afternoon with 20 mg/rat 7,12-dimethylbenz[a]anthacene in a volume of 0.5 ml/rat corn oil (rats weigh approximately 165 g, resulting in 120 mg/kg DMBA and 3 ml/kg corn oil).
Setting [12] is: each drug 0.4 mg/kg/day by gavage, DMBA rats.

Molecules are shown by their SMILES. Read-outs that look alike come from different tables or passages of the source. A value given as a limit tells only on which side of the number the result lay.

Regarding `Cc1cc(Cl)c2oc3cc(Cl)cc(Cl)c3c2c1` [8-MCDF, 8-methyl-1,3,6-trichlorodibenzofuran], the growth inhibition in the data set on mammary tumor (5 mg/kg/wk) is listed as more than 50%. The mammary tumor growth result in the data set with mammary tumor (5, 10 or 25 mg/kg/wk, result in words) was “significantly inhibited”. In the data set on liver, the liver morphology result was “not accompanied by any significant changes” and the liver/body weight ratios entry is “not accompanied by any significant changes”. In addition, the “induction of hepatic CYP1A1-dependent activity” value with CYP1A1 [1] was “not accompanied by any significant changes”.
Consider `Clc1cc(Cl)c2c(c1)oc1c(C3CCCCC3)cc(Cl)cc12` [6-CHDF, 6-cyclohexyl-1,3,8-triCDF], for which the antitumorigenic activity result with mammary tumor (5 mg/kg/wk, result in words) is “inactive”.
`Cc1cc2c(cc1Cl)oc1c(Cl)c(Cl)c(Cl)cc12` [8-methyl-2,3,4,7-tetraCDF]: the “ED50 values for antiestrogenicity” value in the data set on rat uterus is recorded as “similar”. For the same molecule, the “ED50 for induction of hepatic CYP1A1-dependent activity” value in the data set with CYP1A1 [2] was 5.31 mmol/kg.
`CC/C(=C(\c1ccccc1)c1ccc(OCCN(C)C)cc1)c1ccccc1` [tamoxifen, reference compound]: the “Tumor Wt (% Control)” value with mammary tumors (0.4 mg/kg/day each, control 100 ± 27.7) was determined as 61.5 ± 30.4 % Control. Besides, the “Final Tumor Volume (% Control)” value with mammary tumors (0.4 mg/kg/day each, control 100 ± 31.5) was found to be 41.5 ± 20 % Control. In the data set on mammary tumors (0.4 mg/kg/day each, control 2734 ± 956), the “Final Tumor Volume” value is given as 1135 ± 587 mm^3. Further, in the data set with mammary tumors (setting [12]), the “% Inhibition tumor volume” value is reported as 58.5%. Also, in the data set on mammary tumors (setting [12]), the “% Inhibition tumor weight” value is recorded as “NS decrease”. The “Uterine Wt.” value in data set [3] (0.4 mg/kg/day each, 20 days, control 0.212 ± 0.017) was 0.142 ± 0.006 % BW. For the same molecule, in data set [3] (0.4 mg/kg/day each, 20 days, control 0.257 ± .022), the “Spleen Wt.” value is recorded as 0.236 ± 0.019 % BW. For the same molecule, the Kidney weight is recorded as 0.386 ± 0.012 % BW in [3] (0.4 mg/kg/day each, 20 days, control 0.349 ± 0.007) and 0.837 ± 0.045 g in data set [10] (Table 5, control 0.933 ± 0.038). Also, the Liver weight in data set [3] (0.4 mg/kg/day each, 20 days, control 3.13 ± 0.12) worked out at 3.64 ± 0.18 % BW; in data set [10] (Table 5, control 11.88 ± 0.78) it was 10.70 ± 0.92 g. For the same molecule, the “Final Body Weight” value in data set [3] (0.4 mg/kg/day each, 20 days, control 250 ± 5) is given as 243 ± 4 g. Further, the Heart weight in [3] (rat, in vivo) was 0.420 ± 0.018 % BW; in data set [10] (Table 5, control 0.935 ± 0.039), 0.864 ± 0.031 g. In addition, in the data set with femurs (control 0.180 ± 0.005), the Dry bone weight was 0.216 ± 0.005 % body weight. Also, the Wet bone weight in the data set on femurs (control 0.347 ± 0.009) was determined as 0.403 ± 0.007 % body weight. Moreover, in the data set with uterus [4] (control 0.045 ± 0.002), the “Uterine Wet Weight (% body wt)” value was determined as 0.085 ± 0.004 % body wt. The “Uterine Wet Weight” value with uterus [4] (control 0.131 ± 0.006) came to 0.211 ± 0.011 g. Also, the “Uterine Peroxidase Assay (Abs/g uterus)” value in the data set with uterine peroxidase [5] (per g uterus) is 17.7 ± 0.45 Fold Increase over Control. The “Uterine Peroxidase Assay (Abs/mg protein)” value in the data set on uterine peroxidase [5] (per mg protein) is reported as 17.5 ± 0.60 Fold Increase over Control. Further, the “Uterine Peroxidase Assay (Abs/uterus)” value with uterine peroxidase [5] (per uterus) is 28.41 ± 0.73 Fold Increase over Control. For the same molecule, in the data set on uterine cytosolic PR (control 308 ± 142), the “Uterine cytosolic PR levels (fmol/mg protein)” value turned out to be 674 ± 52 fmol/mg protein. The “Uterine cytosolic PR levels (fmol/uterus)” value in the data set with uterine cytosolic PR (control 1100 ± 508) was 4501 ± 350 fmol/uterus. In the data set with uterine cytosolic PR (control 8368 ± 3868), the “Uterine cytosolic PR levels (fmol/g uterus)” value is given as 21301 ± 1655 fmol/g uterus. Besides, the “Uterine wet weight (% body weight)” value in the data set with uterus [6] (control 0.0583 ± 0.0055) worked out at 0.0857 ± 0.0036 % body weight. In addition, the “Uterine wet weight” value with uterus [6] (control 0.171 ± 0.15) is given as 0.208 ± 0.009 g. For the same molecule, in the data set on uterine peroxidase [7] (per g uterus), the “Uterine Peroxidase Activity (Absorbance/g uterus)” value is on record as 31.94 ± 0.26 Fold Increase over control. The “Uterine Peroxidase Activity (Absorbance/mg protein)” value in the data set on uterine peroxidase [7] (per mg protein) was 26.76 ± 0.22 Fold Increase over control. Moreover, the “Uterine Peroxidase Activity (Absorbance/uterus)” value with uterine peroxidase [7] (per uterus) is 38.66 ± 0.32 Fold Increase over control. The “Uterine Progesterone Receptor (fmol/mg protein)” value in data set [8] (control 198 ± 15) is 790 ± 21 fmol/mg protein. The “Uterine Progesterone Receptor (fmol/uterus)” value in data set [8] (control 765 ± 69) was determined as 9062 ± 244 fmol/uterus. Besides, in data set [8] (control 4462 ± 343), the “Uterine Progesterone Receptor (fmol/g uterus)” value is 43666 ± 1175 fmol/g uterus. Moreover, the effect in bone entry in the data set on bone tissue (cycling rats (Takahashi et al. 1996)) is “no effect”. The “effect in bone tissue” value with bone tissue (ovariectomized rats (Turner et al. 1987)) is “acted as an estrogen agonist”. The “risk for endometrial tumor formation” value in the data set with endometrial tumor (2843 patients, 20 mg/day (Fisher et al. 1994)) was 7.5 fold. For the same molecule, the “risk for endometrial tumors” value is reported as 3.3 fold with endometrial tumor (Danish trial, 30 mg/day for one year); “no increased risk” in the data set on endometrial tumor (Scottish and Manchester England trials, 20 mg/day); 2.0 fold in the data set on endometrial tumor (South-Swedish trial, 30 mg/day for one year); “approximately 6 fold” in the data set with endometrial tumor (Stockholm trial, 40 mg/day for 2 years). Further, the “risk/incidence of endometrial cancer” value in the data set on endometrial tumor (women, breast cancer treatment, result in words) is “Risk of endometrial cancer increases”. Further, the uterine hyperplasia result in the data set with uterus [9] (most animal models) was “induced uterine hyperplasia”. In the data set with uterus [9] (rat, result in words), the “rat uterine wet weight” value was “significant dose dependent increases”. Moreover, the “Rat weight at start of treatments” value turned out to be 275.7 ± 7.6 g in data set [10] (Table 5, baseline, control 273.1 ± 8.1) and 261 ± 9 g in data set [11] (Table 7, baseline, control 255 ± 3). Besides, the “Spleen wet weight (% body wt)” value in data set [10] (Table 5, control 0.247 ± 0.007) is reported as 0.252 ± .008 % body wt. The “kidney weight (% body wt)” value in data set [10] (Table 5, control 0.318 ± 0.010) is given as 0.334 ± 0.008 % body wt. Further, the “Heart weight (% body wt)” value in data set [10] (Table 5, control 0.319 ± 0.006) amounted to 0.346 ± 0.005 % body wt. Moreover, the “Spleen wet weight” value in data set [10] (Table 5, control 0.72O ± 0.012) is given as 0.631 ± 0.037 g. For the same molecule, the “Liver weight (% body wt)” value in [10] (Table 5, control 4.06 ± 0.23) amounted to 4.26 ± 0.26 % body wt. For the same molecule, the “Rat weight prior to euthanasia” value in data set [10] (Table 5, control 293.2 ± 10.9) came out at 249.8 ± 7.6 g; in data set [11] (Table 7, control 295 ± 11), 242 ± 6 g. Also, the “Spleen weight (% body weight)” value in data set [11] (Table 7, control 0.289 ± 0.018) came to 0.254 ± 0.018 % body weight. The “Kidney weight (% body weight)” value in data set [11] (Table 7, control 0.334 ± 0.010) was 0.369 ± 0.017 % body weight. Besides, in data set [11] (Table 7, control 0.360 ± 0.010), the “Heart weight (% body weight)” value is reported as 0.357 ± 0.023 % body weight.
On to `Cc1cc(Cl)cc2c1oc1c(Cl)c(Cl)c(Cl)cc12` [6-methyl-2,3,4,8-tetraCDF, 6-methyl-2,3,4,8-tetrachlorodibenzofuran], for which the “ED50 values for antiestrogenicity” value in the data set on rat uterus is given as “similar”. For the same molecule, the “ED50 for induction of hepatic CYP1A1-dependent activity” value in the data set with CYP1A1 [2] is on record as 8.52 mmol/kg.
As for `CC(C)c1cc(Cl)cc2c1oc1cc(Cl)cc(Cl)c12` [6-i-propyl-1,3,8-triCDF], in the data set with rat uterus, the “ED50 values for antiestrogenicity” value is on record as “similar”. In the data set with CYP1A1 [2] (high ratio indicates low toxicity and high antiestrogenic potency), the “ED50 (CYP1A1 induction)/ED50 (antiestrogenicity) ratio” value is given as 13,990-17,100.

Source of the values: patent publication US6136845A (The Texas A&M University System, priority 1998, dated 2000).
